{"source": "patent US20230048888A1", "about": "“USE OF TRIAZOLOTRIAZINE DERIVATIVE IN TREATMENT OF DISEASES” (ZHEJIANG VIMGREEN PHARMACEUTICALS, LTD., priority 2019, published 2023)", "key": {"[1]": {"target": "T1, human ADORA2A (Homo sapiens, UniProt P29274)", "T1 construct": "host or cells: CHO", "T1 sequence (P29274 whole entry)": "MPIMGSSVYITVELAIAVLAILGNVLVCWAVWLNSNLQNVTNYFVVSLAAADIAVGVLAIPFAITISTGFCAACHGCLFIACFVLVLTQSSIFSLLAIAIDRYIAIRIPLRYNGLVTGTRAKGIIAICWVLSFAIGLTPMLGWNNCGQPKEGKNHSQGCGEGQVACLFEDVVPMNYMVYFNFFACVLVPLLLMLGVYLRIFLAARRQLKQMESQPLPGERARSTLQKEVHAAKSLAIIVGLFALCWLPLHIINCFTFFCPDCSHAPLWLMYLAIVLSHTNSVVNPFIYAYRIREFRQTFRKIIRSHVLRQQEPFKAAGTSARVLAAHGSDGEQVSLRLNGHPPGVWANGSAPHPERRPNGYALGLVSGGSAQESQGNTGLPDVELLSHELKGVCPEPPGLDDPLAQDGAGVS", "experiment": "Calcium flow test (FLIPR), ADORA2A stably transfected CHO", "format": "cell-based", "conditions": "Table 9", "source_text": "The binding of the A2AR agonist to A2AR could activate a downstream pathway to increase the intracellular calcium ion concentration. The antagonist would competitively occupy the binding site where the agonist binds to A2AR, thereby interrupting the intracellular signal transduction and leading to a change in the intracellular calcium ion concentration. By detecting the strength of the intracellular calcium ion signal, the antagonistic activities of the compound on human ADORA1, ADORA2A, ADORA2B and ADORA3 adenosine receptors were determined. […]\n7) The FLIPR instrument software was operated; following a set program, 10 μL of experimental buffer salt solution was added to the cell plate; and fluorescence signals were read. Then, 10 μL of the reference compound of agonist at a predetermined concentration was added to the cell plate, and the fluorescence signals were read. After reading, data was exported by means of “Max-Min” and “Read 91 to Maximum allowed” in the software, the EC80 of each cell line was calculated, and an agonist with a concentration of 6×EC80 was prepared.\n9) The FLIPR instrument software was operated; following a set program, 10 μL of the test compound and 10 μL of the reference compound were added at a predetermined concentration to the cell plate; and the fluorescence signals were read. […]"}, "[2]": {"target": "T2, Human adenosine ADORA2A receptor membrane protein (Homo sapiens, UniProt P29274)", "T2 construct": "purchased PerkinElmer RBHA2AM400UA", "T2 sequence (P29274 whole entry)": "as above", "experiment": "Radioisotope ligand competitive binding, ADORA2A ([3H] CGS-21680)", "conditions": "ADORA2A (IC50, nM, n = 3), binding test", "method": "ADORA2A: 50 mM Tris-HCl pH 7.4, 10 mM MgCl2, 1 mM EDTA\n4) Preparation of compounds: the test compounds and the reference compounds were separately diluted with 100% DMSO.\n1 μL of a sample to be tested and 1 μL of a reference compound were added to a 96-well plate in sequence. […] 100 μL of cells and 100 μL of isotopes were added to all experimental wells. The 96-well plate was sealed; ADORA1, ADORA2B, and ADORA3 were incubated for 1 hour on a shaker (300 rpm) at room temperature (22° C.); and ADORA2A was incubated for 2 hours on a shaker (300 rpm) at room temperature (22° C.). At the same time, a GF/C filter plate was soaked with ADORA1, ADORA2A, ADORA2B, and ADORA3 by using 0.3% PEI for at least 30 minutes at room temperature, at 50 μL/well. After the incubation was completed, the incubated reaction system was collected onto the GF/C filter plate with a Harvester, washed 4 times and then dried for 0.5 hours in an oven at 50° C. The bottom of the dried GF/C filter plate was sealed with a film, 50 μL of scintillation solution was added to each well, which was then sealed with a Top-seal-A film. With Microbeta readings, the data was analyzed by GraphPad Prism 5.0.\n% Inhibition=100×(1−(Sample_raw value−Low control_Average)/(High control_Average−Low control_Average))\nThe data was fitted with “log(inhibitor) vs response-variable slope” in GraphPad Prism 5.0 to obtain IC50."}, "[3]": {"experiment": "Pharmacokinetics of test compounds in SD rats (15.2; IV and PO, mixed administration)", "format": "in vivo", "conditions": "for AUC(0-t) / Cmax / half-life: male, Sprague-Dawley, rat, plasma; for half-life: read-out: T½ (converted)", "method": "Administration dose: the compounds in this group were all administered in a mixed way, with 6 compounds in each group for mixed PO administration.\nBlood was collected based on the blood collection points in the test protocol. 50 μL of plasma sample was added with acetonitrile (containing 5 ng/mL Verapamil) being 3 folds of the volume thereof; the resulting mixture was vortexed for 30 s, and then centrifuged for 15 min at 15,000 rpm at 4° C.; and 10μ L of supernatant was taken for LC-MS/MS analysis.\nFor each compound, 3 male SD rats weighing 200-220 g were fasted for one night before dosage, but had access to water.\nOrally intragastric administration: before intragastric administration and at 0.083 h, 0.25 h, 0.5 h, 1 h, 2 h, 4 h, 8 h and 24 h after administration (for Compounds 40, 27, 40 and 47), or at 0.25 h, 0.5 h, 1 h, 4 h, 6 h and 8 h after administration (for Compounds 44 and 48), orbital blood was collected and put in a test tube that was treated with heparin sodium, and after centrifugation, the supernatant plasma was collected for LC-MS/MS analysis.\nThe plasma samples were processed according to the method for “sample treatment” and then analyzed by LC-MS/MS, accompanied with the standard curve and quality control samples. At a time point when the upper limit of quantification was exceeded, the samples were diluted 10 or 100 folds for analysis. All measured data were collected and processed by Analyst 1.6.3 software, and the data were calculated and processed with Microsoft Excel. With DAS 3.2.8 software, the pharmacokinetic parameters were calculated by the statistical moment method. The pharmacokinetic parameters mainly include Tmax, t1/2, Cmax, AUC(0-t), etc."}}, "note": "Read-outs that look alike come from different tables or passages of the source."}
{"compound": "Nc1nc(NCCc2ccc(NC3COC3)cc2)nc2nc(-c3ccco3)nn12", "note": "[Compound 22, 2-(furan-2-yl)-N5-(4-(oxetan-3-ylamino)phenethyl)-[1,2,4]triazolo[1,5-a][1,3,5]triazine-5,7-diamine]", "values": [{"measurement": "IC50", "setting": "[1]", "value": "0.35 ± 0.07", "unit": "nM"}, {"measurement": "IC50", "setting": "[2]; Table 10 (IC50)", "value": "0.96 ± 0.11", "unit": "nM"}, {"measurement": "IC50", "setting": "[2]; Table 11", "value": 0.85, "unit": "nM"}]}
{"compound": "COCCNc1ccc(CCNc2nc(N)n3nc(-c4ccco4)nc3n2)cc1", "note": "[Compound 27, 2-(furan-2-yl)-N5-(4-((2-methoxyethyl)amino)phenethyl)-[1,2,4]triazolo[1,5-a][1,3,5]triazine-5,7-diamine]", "values": [{"measurement": "Cl_F_pred", "setting": "[3]; SD rats, PO, 10 mg/kg", "value": 139.069, "unit": "mL/min/kg"}, {"measurement": "F", "setting": "[3]; SD rats, PO, 10 mg/kg", "value": 127.5, "unit": "%"}, {"measurement": "AUC(0-t)", "setting": "[3]; SD rats, PO, 10 mg/kg", "value": 1070, "unit": "ng·h/mL"}, {"measurement": "Cmax", "setting": "[3]; SD rats, PO, 10 mg/kg", "value": 325, "unit": "ng/mL"}, {"measurement": "half-life", "setting": "[3]; SD rats, PO, 10 mg/kg", "value": 145, "unit": "min"}]}
{"compound": "Cn1nnc(-c2ccc(CCNc3nc(N)n4nc(-c5ccco5)nc4n3)cc2)n1", "note": "[Compound 40, N5-(4-(2-methyl-2H-tetrazol-5-yl)phenethyl)-2-(furan-2-yl)-[1,2,4]triazolo[1,5-a][1,3,5]triazine-5,7-diamine]", "values": [{"measurement": "IC50", "setting": "[1]", "value": "1.17 ± 0.62", "unit": "nM"}, {"measurement": "IC50", "setting": "[2]; Table 10 (IC50)", "value": "1.85 ± 0.27", "unit": "nM"}, {"measurement": "IC50", "setting": "[2]; Table 11", "value": 1.64, "unit": "nM"}, {"measurement": "Cl_F_pred", "setting": "[3]; SD rats, PO, 10 mg/kg", "value": 22.9228, "unit": "mL/min/kg"}, {"measurement": "F", "setting": "[3]; SD rats, PO, 10 mg/kg", "value": 46.97, "unit": "%"}, {"measurement": "half-life", "setting": "[3]; po, […]", "value": 13.8, "unit": "min"}, {"measurement": "AUC(0-t)", "setting": "[3]; SD rats, PO, 2 mg/kg, mixed administration (6 compounds per group)", "value": 2360, "unit": "ng·h/mL"}, {"measurement": "AUC(0-t)", "setting": "[3]; SD rats, PO, 10 mg/kg", "value": 6600, "unit": "ng·h/mL"}, {"measurement": "Cmax", "setting": "[3]; SD rats, PO, 10 mg/kg", "value": 2440, "unit": "ng/mL"}, {"measurement": "half-life", "setting": "[3]; SD rats, PO, 10 mg/kg", "value": 146, "unit": "min"}]}
